Measurements from patent US20250092016A1, “COMPOUNDS AND COMPOSITIONS FOR THE TREATMENT OF CORONAVIRAL RELATED DISEASES” (priority 2021, published 2025).

Key:
[1] = target: T1, SARS-CoV-2 main protease (M^pro) (Severe acute respiratory syndrome coronavirus 2, UniProt P0DTD1); test: Rapid-Fire MS Biochemical Assay measuring Mpro activity (12.5 nM Mpro); details: Table 1A, Mpro inhibition, 5 μM substrate peptide, 30 min
[2] = target: T1, SARS-CoV-2 main protease (M^pro); test: Rapid-Fire MS Biochemical Assay measuring Mpro activity (5 nM Mpro); details: Table 1B, Mpro inhibition, 5 μM substrate peptide, 120 min, read-out: Rapid-Fire Assay IC50

Row | SMILES | IC50 [1] [nM] | IC50 [2] [nM]
1 | N#CC1CN(c2cccc(Cl)c2)C(=O)N1c1cncc2ccccc12 (racemic) [Compound 2, 1-(3-chlorophenyl)-3-(isoquinolin-4-yl)-2-oxoimidazolidine-4-carbonitrile] | 5 | < 20
2 | N#C[C@H]1CN(c2ccccc2)C(=O)N1c1cncc2ccccc12 (single isomer, unassigned) [Compound 1a] | 9 | < 20
3 | N#C[C@H]1CN(c2cccc(Cl)c2)C(=O)N1c1cncc2ccccc12 (single isomer, unassigned) [Compound 2a] | < 5 | < 20
4 | N#CC1CN(c2ccc(F)cc2)C(=O)N1c1cncc2ccccc12 (racemic) [Compound 6, 1-(4-fluorophenyl)-3-(isoquinolin-4-yl)-2-oxoimidazolidine-4-carbonitrile] | 27 | 20 to 200
5 | N#CC1CN(c2ccc(C(F)(F)F)cn2)C(=O)N1c1cncc2ccccc12 (racemic) [Compound 3, 3-(isoquinolin-4-yl)-2-oxo-1-(5-(trifluoromethyl)pyridin-2-yl)imidazolidine-4-carbonitrile] | 7 | < 20
6 | N#CC1CN(c2cccc(F)c2)C(=O)N1c1cncc2ccccc12 (racemic) [Compound 7, 1-(3-fluorophenyl)-3-(isoquinolin-4-yl)-2-oxoimidazolidine-4-carbonitrile] | 6 | < 20
7 | N#CC1CN(c2ccccc2)C(=O)N1c1cncc2ccccc12 (racemic) [Compound 1, 3-(isoquinolin-4-yl)-2-oxo-1-phenylimidazolidine-4-carbonitrile] | 37 | 20 to 200
8 | N#C[C@@H]1CN(c2cccc(Cl)c2)C(=O)N1c1cncc2ccccc12 (single isomer, unassigned) [Compound 2b] | 3000 | > 1000
9 | N#CC1CN(c2ccc(C(F)(F)F)cc2)C(=O)N1c1cncc2ccccc12 (racemic) [Compound 4, 3-(isoquinolin-4-yl)-2-oxo-1-(4-(trifluoromethyl)phenyl)imidazolidine-4-carbonitrile] | < 5 | < 20
10 | N#CC1CN(c2ccc(F)cn2)C(=O)N1c1cncc2ccccc12 (centres unmarked) [Compound 8, 1-(5-fluoropyridin-2-yl)-3-(isoquinolin-4-yl)-2-oxoimidazolidine-4-carbonitrile] | 77 | 20 to 200
11 | N#CC1CN(c2ccc(Cl)cn2)C(=O)N1c1cncc2ccccc12 (racemic) [Compound 10, 1-(5-chloropyridin-2-yl)-3-(isoquinolin-4-yl)-2-oxoimidazolidine-4-carbonitrile] | 5 | < 20
12 | N#CC1CN(c2ccc(Cl)cc2)C(=O)N1c1cncc2ccccc12 (centres unmarked) [Compound 5, 1-(4-chlorophenyl)-3-(isoquinolin-4-yl)-2-oxoimidazolidine-4-carbonitrile] | < 5 | < 20
13 | N#C[C@@H]1CN(c2ccccc2)C(=O)N1c1cncc2ccccc12 (single isomer, unassigned) [Compound 1b] | 6400 | > 1000
